For series [1], the system named is MMC genotoxicity. The note with it: CGA 5 and 50 μM, MMC 0.9 μM (0.3 μg/mL); cited from earlier work.
In series [2] the test system is S. typhimurium TA1535/pSK1002. It counts as cell-based, Salmonella typhimurium. The procedure:
(§1) IR was calculated on the basis of spectrophotometric measurement.

Series [3] has as its system S. typhimurium TA1535/pSK1002. The note with it: mixture with 4NQO 0.05 μg/mL.
Experimental: Salmonella typhimurium strain TA1535/pSK1002 was purchased from Deutsche Sammlung von Mikroorganismen und Zellkulturen GmbH (DSMZ, Germany).
The strain used in the test carries the fusion of umuC and lacZ genes, which are placed at the plasmid pSK1002. […] In the present study, the umu-test was carried out in the micro-plate variant according to the ISOguideline [61]. β -galactosidase activity of the tested compound was presented as induction ratio (IR). IR was calculated as the β -galactosidase activity of the tested compound relative to the negative control.
IR was calculated on the basis of spectrophotometric measurement. The absorption at 420 nm indicated the intensity of the enzymatic reaction, and the optical density at 600 nm indicated the bacteria growth. The measurements were performed with an Asys UVM340 Hightech microplate spectrophotometer.
At the same time, the genotoxicity of PhAs (10 μ g/mL) and EXTs (0.25–2 mg/mL) was investigated.
Series [4] relates to S. typhimurium TA1535/pSK1002. The procedure: Metabolic activation was obtained with S9 fraction prepared from livers of male Sprague Dawley rats. […] After isolation, the evaluation of cytochrome p450 level was performed and samples were stored at −80 ^∘ C. The S9 mix was prepared according to the method described by Maron and Ames.
as §1

The test system of series [5] is S. typhimurium TA1535/pSK1002. The note with it: −S9, highest tested concentration 10 μg/mL. The procedure:
as §1

For series [6], the system named is S. typhimurium TA1535/pSK1002. The procedure:
as §1
The anti-photogenotoxicity was determined using chlorpromazine (CPZ) as an agent inducing genotoxic response under UVA irradiation by forming an unstable promazyl radical which is able to bind to DNA [62]. The protocol developed by Skrzypczak et. al was applied. […] The rate of anti-photogenotoxicity was calculated using the same formula as the rate of antigenotoxicity.
This is another data set of the same source.

In series [7] the test system is S. typhimurium TA98 strain. The note with it: against 4NQO; cited from earlier work.
Where [8] appears, read: mixture with MMC 0.004 μg/mL, PhA 5 μg/mL.
[9] abbreviates: mixture with MMC 0.004 μg/mL, PhA 10 μg/mL.
The mark [10] stands for this setting: mixture with MMC 0.004 μg/mL, PhA […].
Where [11] appears, read: mixture with MMC 0.02 μg/mL, PhA 5 μg/mL.
Where [12] appears, read: mixture with MMC 0.02 μg/mL, PhA 10 μg/mL.
[13] abbreviates: mixture with MMC 0.02 μg/mL, PhA […].
[14] abbreviates: +S9, highest tested concentration 10 μg/mL.
Where [15] appears, read: mixture with 2AA 1 μg/mL, PhA concentration 0.3125 (mg/mL).
The mark [16] stands for this setting: mixture with 2AA 1 μg/mL, PhA concentration 0.625 (mg/mL).
Setting [17] is: mixture with 2AA 1 μg/mL, PhA concentration 1.25 (mg/mL).
Setting [18] is: mixture with 2AA 1 μg/mL, PhA concentration 2.5 (mg/mL).
The mark [19] stands for this setting: mixture with 2AA 1 μg/mL, PhA concentration 5 (mg/mL).
Setting [20] is: mixture with 2AA 1 μg/mL, PhA concentration 10 (mg/mL).
The mark [21] stands for this setting: mixture with 2AA 10 μg/mL, PhA concentration 0.3125 (mg/mL).
Setting [22] is: mixture with 2AA 10 μg/mL, PhA concentration 0.625 (mg/mL).
Where [23] appears, read: mixture with 2AA 10 μg/mL, PhA concentration 1.25 (mg/mL).
Setting [24] is: mixture with 2AA 10 μg/mL, PhA concentration 2.5 (mg/mL).
Where [25] appears, read: mixture with 2AA 10 μg/mL, PhA concentration 5 (mg/mL).
The mark [26] stands for this setting: mixture with 2AA 10 μg/mL, PhA concentration 10 (mg/mL).
Setting [27] is: mixture with CPZ 5 μg/mL, UVA, PhA 5 μg/mL.
Setting [28] is: mixture with CPZ 5 μg/mL, UVA, PhA 10 μg/mL.
Where [29] appears, read: mixture with CPZ 5 μg/mL, UVA, PhA […].
Where [30] appears, read: mixture with CPZ 10 μg/mL, UVA, PhA 5 μg/mL.
Where [31] appears, read: mixture with CPZ 10 μg/mL, UVA, PhA 10 μg/mL.
[32] abbreviates: mixture with CPZ 10 μg/mL, UVA, PhA […].

Where two headings read alike, the source gives them in different places.

Take `O=C(/C=C/c1ccc(O)c(O)c1)O[C@@H]1C[C@](O)(C(=O)O)C[C@@H](O)[C@H]1O` [CGA, Chlorogenic acid]: the “inhibition of MMC genotoxicity” value in series [1] is recorded as 65%.
As to `COc1cc(/C=C/C(=O)O)ccc1O` [FA, ferulic acid], the “IR (mean ± SD)” value in series [2] (setting [8]) turned out to be 2.5 ± 0.62; in series [2] (setting [9]) it was 2.3 ± 0.51; in series [2] (setting [10]), 2.6 ± 0.93; in series [2] (setting [11]), 5 ± 1.2; in series [2] (setting [12]), 5 ± 1.2; in series [2] (setting [13]), 5 ± 1.2. For the same compound, the “IR (mean ± SD)” value amounted to 3.6 ± 0.67 in series [3] (PhA 5 μg/mL); 4.0 ± 0.70 in series [3] (PhA 10 μg/mL); 1.1 ± 0.14 in series [4] (setting [14]); 3.1 ± 0.73 in series [4] (setting [15]); 2.7 ± 0.37 in series [4] (setting [16]); 2.9 ± 0.66 in series [4] (setting [17]). The “IR (mean ± SD)” value in series [4] (setting [18]) was determined as 2.8 ± 0.58; in series [4] (setting [19]), 3.4 ± 0.96; in series [4] (setting [20]), 4 ± 1.0; in series [4] (setting [21]) it was 2.9 ± 0.43; in series [4] (setting [22]) it was 3.1 ± 0.75; in series [4] (setting [23]) it was 3.3 ± 0.63. For the same compound, the “IR (mean ± SD)” value is recorded as 3.2 ± 0.45 in series [4] (setting [24]); 4 ± 1.3 in series [4] (setting [25]); 5 ± 1.4 in series [4] (setting [26]); 1.2 ± 0.10 in series [5]; 3.0 ± 0.37 in series [6] (setting [27]); 3.2 ± 0.20 in series [6] (setting [28]). Besides, the “IR (mean ± SD)” value in series [6] (setting [29]) came to 3.0 ± 0.41; in series [6] (setting [30]) it was 4.5 ± 0.73; in series [6] (setting [31]), 4.3 ± 0.46; in series [6] (setting [32]) it was 4 ± 1.1. Moreover, the Antigenotox. in series [4] (2AA 1 μg/mL, PhA concentration 0.625 (mg/mL)) came out at 19%. Also, the Anti-Photogenotox. in series [6] (CPZ 5 μg/mL, UVA, PhA 5 μg/mL) was 15%; in series [6] (CPZ 5 μg/mL, UVA, PhA 10 μg/mL), 11%; in series [6] (CPZ 5 μg/mL, UVA, PhA […]), 20%; in series [6] (CPZ 10 μg/mL, UVA, PhA 10 μg/mL), 15%; in series [6] (CPZ 10 μg/mL, UVA, PhA […]), 14%.
`Nc1ccc2cc3ccccc3cc2c1` [2AA, 2-aminoanthracene]: the “IR (mean ± SD)” value in series [4] (control: 2AA 1 μg/mL alone, +S9, experiments with PhAs) was 3.37 ± 0.72; in series [4] (control: 2AA 1 μg/mL alone, +S9, experiments with extracts) it was 4.5 ± 0.99; in series [4] (control: 2AA 10 μg/mL alone, +S9, experiments with PhAs) it was 4 ± 1.3; in series [4] (control: 2AA 10 μg/mL alone, +S9, experiments with extracts), 6 ± 1.5.
With `CN(C)CCCN1c2ccccc2Sc2ccc(Cl)cc21` [CPZ, chlorpromazine], the “IR (mean ± SD)” value stood at 3.6 ± 0.40 in series [6] (control: CPZ 5 μg/mL alone, UVA irradiation) and 5.1 ± 0.78 in series [6] (control: CPZ 10 μg/mL alone, UVA irradiation).
Take `O=C(O)/C=C/c1ccc(O)c(O)c1` [CA, caffeic acid]: the “reduction of the number of revertants” value in series [7] was 28%. In addition, the “IR (mean ± SD)” value is given as 2.7 ± 0.81 in series [2] (setting [8]); 2.3 ± 0.67 in series [2] (setting [9]); 2.5 ± 0.75 in series [2] (setting [10]); 5 ± 1.1 in series [2] (setting [11]); 5 ± 1.2 in series [2] (setting [12]); 5 ± 1.2 in series [2] (setting [13]). Moreover, the “IR (mean ± SD)” value in series [3] (PhA 5 μg/mL) worked out at 3.7 ± 0.69; in series [3] (PhA 10 μg/mL) it was 3.9 ± 0.99; in series [4] (setting [14]) it was 1.0 ± 0.11; in series [4] (setting [15]), 3 ± 1.0; in series [4] (setting [16]), 3.1 ± 0.55; in series [4] (setting [17]), 3.1 ± 0.29. Besides, the “IR (mean ± SD)” value in series [4] (setting [18]) is reported as 3.1 ± 0.53; in series [4] (setting [19]) it was 3.7 ± 0.77; in series [4] (setting [20]) it was 3.8 ± 0.85; in series [4] (setting [21]) it was 2.8 ± 0.60; in series [4] (setting [22]) it was 3.4 ± 0.90; in series [4] (setting [23]), 2.7 ± 0.34. The “IR (mean ± SD)” value was determined as 3.2 ± 0.51 in series [4] (setting [24]); 3.6 ± 0.89 in series [4] (setting [25]); 3.7 ± 0.80 in series [4] (setting [26]); 1.1 ± 0.16 in series [5]; 3.3 ± 0.33 in series [6] (setting [27]); 3.4 ± 0.25 in series [6] (setting [28]). For the same compound, the “IR (mean ± SD)” value in series [6] (setting [29]) is reported as 3.2 ± 0.40; in series [6] (setting [30]), 5 ± 1.2; in series [6] (setting [31]) it was 4.9 ± 0.90; in series [6] (setting [32]), 4.5 ± 0.49. Besides, the Antigenotox. in series [4] (2AA 10 μg/mL, PhA concentration 1.25 (mg/mL)) is reported as 24%. In addition, the Anti-Photogenotox. was 11% in series [6] (CPZ 5 μg/mL, UVA, PhA […]) and 10% in series [6] (CPZ 10 μg/mL, UVA, PhA […]).

These data come from paper PMC7179227, “Antigenotoxic, Anti-photogenotoxic, and Antioxidant Properties of Polyscias filicifolia Shoots Cultivated In Vitro” (Molecules, 2020).
